# Where “and” joins values, the source holds several entries; their conditions need not be identical. Identical values can stand only once. Like-named read-outs stand apart in the source and are kept apart here.
# Columns and labels:
# [1] = target: T1, human SLC35B1 (wild type) (Homo sapiens, UniProt P78383); type: binding; design: made in house; host or cells: Saccharomyces cerevisiae FGY217; details: for GFP fluorescence after heating (source data Fig 1B): 1 mM substrate
# T1 sequence (P78383 1-322): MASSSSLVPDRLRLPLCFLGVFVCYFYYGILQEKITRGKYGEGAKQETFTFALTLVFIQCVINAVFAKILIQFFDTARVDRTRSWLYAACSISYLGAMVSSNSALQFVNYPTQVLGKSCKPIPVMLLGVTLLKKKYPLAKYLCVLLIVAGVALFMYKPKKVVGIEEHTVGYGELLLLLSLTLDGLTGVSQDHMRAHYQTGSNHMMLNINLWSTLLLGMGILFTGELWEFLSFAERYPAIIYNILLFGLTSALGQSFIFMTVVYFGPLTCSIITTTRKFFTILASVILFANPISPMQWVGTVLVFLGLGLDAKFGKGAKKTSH
# [2] = target: T1, human SLC35B1 (wild type); assay: [3H]ADP/ATP exchange kinetics (Michaelis–Menten); type: biochemical; design: made in house; host or cells: Saccharomyces cerevisiae FGY217
# [3] = target: T1, human SLC35B1 (wild type); assay: Competitive uptake assay: [3H]ADP uptake with 1 mM cold nucleotide; type: biochemical; design: made in house; host or cells: Saccharomyces cerevisiae FGY217; details: competitor 1mM; sheet ED 6F; SLC35B1 proteoliposomes
# [4] = target: T1, human SLC35B1 (wild type); assay: STD NMR of nucleotide interaction with SLC35B1 proteoliposomes; type: binding; design: made in house; host or cells: Saccharomyces cerevisiae FGY217
# [5] = target: T1, human SLC35B1 (wild type); assay: IC50 for competitive inhibition of [3H]ADP uptake in proteoliposomes; type: biochemical; design: made in house; host or cells: Saccharomyces cerevisiae FGY217
# [6] = target: T2, SLC35B1-Fv-MBP fusion protein (Homo sapiens, UniProt P78383); assay: IC50 for ADP competition of [3H]-ADP/ATP transport, SLC35B1-Fv-MBP; type: biochemical; details: read-out: IC50, external ADP competition of [3H]-ADP/ATP transport; SLC35B1-Fv-MBP fusion protein in proteoliposomes
# T2 construct: TEV site (C); GFP (C); His8 (C); made in house; host or cells: SLC35B1: Saccharomyces cerevisiae FGY217; Fv–MBP: Brevibacillus choshinensis (secreted)
# T2 sequence (P78383 1-322): T1 sequence (P78383 1-322)
smiles,measurement,setting,value
Nc1ncnc2c1ncn2[C@@H]1O[C@H](COP(=O)(O)OP(=O)(O)O)[C@@H](O)[C@H]1O [ADP],ΔTm (average melting temperature increase),"[1]; 1 mM nucleotide, purified wild-type SLC35B1–GFP",5.3 °C
same,"ΔTm, individual titrations (source data)","[1]; 1 mM nucleotide, wild-type SLC35B1–GFP",5.49 and 5.09 and 5.45
same,GFP fluorescence after heating (source data Fig 1B),[1]; temperature 4,98.7528 and 95.6204 and 104.931 and 101.189 and 101.102 and 98.4048
same,GFP fluorescence after heating (source data Fig 1B),[1]; temperature 10,87.2672 and 91.8788 and 95.3593 and 107.889 and 92.923 and 94.9243
same,GFP fluorescence after heating (source data Fig 1B),[1]; temperature 20,90.7477 and 91.6178 and 91.1827 and 94.7503 and 88.9204 and 86.6668
same,GFP fluorescence after heating (source data Fig 1B),[1]; temperature 30,85.9881 and 86.4928 and 88.9204 and 91.0957 and 89.5295 and 91.7048
same,GFP fluorescence after heating (source data Fig 1B),[1]; temperature 40,42.8735 and 42.656 and 39.9412 and 40.3066 and 43.7088 and 44.6834
same,GFP fluorescence after heating (source data Fig 1B),[1]; temperature 50,5.748 and 5.6183 and 5.416 and 5.384 and 5.915 and 6.0377
same,GFP fluorescence after heating (source data Fig 1B),[1]; temperature 60,2.3127 and 2.334 and 2.351 and 2.357 and 2.381 and 2.422
same,GFP fluorescence after heating (source data Fig 1B),[1]; temperature 70,0.4378 and 0.4464 and 0.4526 and 0.4781 and 0.469 and 0.4867
same,ADP/ATP exchange initial rate,[2]; [ADP] 0.2,18.1311 nmols / min* mg and 18.3179 nmols / min* mg and 18.8253 nmols / min* mg
same,ADP/ATP exchange initial rate,[2]; [ADP] 0.5,28.9111 nmols / min* mg and 29.9816 nmols / min* mg and 28.6714 nmols / min* mg
same,ADP/ATP exchange initial rate,[2]; [ADP] 1,44.617 nmols / min* mg and 42.2865 nmols / min* mg and 44.5891 nmols / min* mg
same,ADP/ATP exchange initial rate,[2]; [ADP] 5,114.496 nmols / min* mg and 126.14 nmols / min* mg and 112.107 nmols / min* mg
same,ADP/ATP exchange initial rate,[2]; [ADP] 10,156.88 nmols / min* mg and 168.644 nmols / min* mg and 150.078 nmols / min* mg
same,ADP/ATP exchange initial rate,[2]; [ADP] 20,155.074 nmols / min* mg and 183.464 nmols / min* mg and 182.884 nmols / min* mg
same,[3H]ADP uptake in the presence of cold competitor nucleotide (individual replicates; no-competitor control about 100),[3],-1.767 and -1.033 and 2.879 and 5.424 and 4.368 and 4.176
same,1H integral (off-resonance spectrum),[4],1.99E+11
same,STD integral,[4],3.67E+10
same,Normalized [3H]-ADP uptake activity (IC50 curve),[5]; external cold nucleotide 0.01 uM,93.6927 and 106.307 and 98.0637
same,Normalized [3H]-ADP uptake activity (IC50 curve),[5]; external cold nucleotide 0.1 uM,87.3862 and 98.7018 and 89.3272
same,Normalized [3H]-ADP uptake activity (IC50 curve),[5]; external cold nucleotide 1 uM,48.8239 and 76.0895 and 44.7547
same,Normalized [3H]-ADP uptake activity (IC50 curve),[5]; external cold nucleotide 10 uM,22.7468 and 19.9682 and 21.5397
same,Normalized [3H]-ADP uptake activity (IC50 curve),[5]; external cold nucleotide 100 uM,8.173 and 6.95 and 8.424
same,IC50,[5]; wild-type SLC35B1 proteoliposomes,1.6 µM
same,IC50,[6],2.77 ± 0.41 µM

# Reference: article PMC12267056 (Nature, 2025)
